Converted amounts (≈) assume the structure as drawn. Where two headings read alike, the source gives them in different places.
Key:
Botrytis cinerea = assay: microbe, parasite or virus in culture; assay type: cell-based; conditions: for MIC: Botrytis cinerea, read-out: MIC (Minimum Inhibitory Concentration) BOTRCI
Pyrenophora teres = assay: Minimum Inhibitory Concentration, serial dilution test; assay type: cell-based; conditions: for MIC: Pyrenophora teres, read-out: MIC (Minimum Inhibitory Concentration) PYRNTE
Altemaria solani = assay: organism not typed; assay type: cell-based; conditions: for MIC: read-out: MIC (Minimum Inhibitory Concentration) ALTESO
[1] = test system: Magnaporthe grisea f. sp. Oryzae; assay: microbe, parasite or virus in culture; assay type: cell-based; conditions: for MIC: Pyricularia oryzae, read-out: MIC (Minimum Inhibitory Concentration) PYRIOR; for MIC (Minimum Inhibitory Concentration) PYRIOR: total inhibition of mycelial growth, V8 nutrient solution, 6-12 days incubation at 18-25°C, visual inspection
Leptosphaeria nodorum = assay: Minimum Inhibitory Concentration, serial dilution test; assay type: cell-based; conditions: for MIC: Parastagonospora nodorum, read-out: MIC (Minimum Inhibitory Concentration) LEPTNO
Uncinula necator = assay: Control of powdery mildew on grapes, prophylactic greenhouse test; assay type: in vivo; conditions: grape cultivar Müller-Thurgau, application 3 days before infection, evaluation 21 days after infection; for activity at 3.13 ppm / activity at 6.25 ppm / activity at 12.5 ppm / activity at 25 ppm: Erysiphe necator, read-out: % activity (ABBOTT formula)
Rhizoctonia solani = assay: Minimum Inhibitory Concentration, serial dilution test; assay type: cell-based; conditions: for MIC: Rhizoctonia solani, read-out: MIC (Minimum Inhibitory Concentration) RHISZO
Phytophthora infestans = assay: microbe, parasite or virus in culture; assay type: cell-based; conditions: for MIC (Minimum Inhibitory Concentration) PHYTIN: total inhibition of mycelial growth, V8 nutrient solution, 6-12 days incubation at 18-25°C, visual inspection; for MIC: Phytophthora infestans, read-out: MIC (Minimum Inhibitory Concentration) PHYTIN
[2] = total inhibition of mycelial growth, V8 nutrient solution, 6-12 days incubation at 18-25°C, visual inspection

Compound | MIC (Botrytis cinerea) [µg/mL] | MIC (Pyrenophora teres; [2]) [µg/mL] | MIC (Altemaria solani) [µg/mL] | MIC [1] [µg/mL] | MIC (Leptosphaeria nodorum; [2]) [µg/mL] | activity at 3.13 ppm (Uncinula necator; Concentration 3.13 ppm) [%] | activity at 6.25 ppm (Uncinula necator; Concentration 6.25 ppm) [%] | activity at 12.5 ppm (Uncinula necator; Concentration 12.50 ppm) [%] | activity at 25 ppm (Uncinula necator; Concentration 25.00 ppm) [%] | MIC (Minimum Inhibitory Concentration) BOTRCI (Botrytis cinerea) [µg/mL] | MIC (Minimum Inhibitory Concentration) ALTESO (Altemaria solani) [µg/mL] | MIC (Minimum Inhibitory Concentration) PHYTIN (Phytophthora infestans) [µg/mL] | MIC (Minimum Inhibitory Concentration) PYRIOR [1] [µg/mL] | other results
Fc1cc(F)c(-c2c(Cl)nc3ncnn3c2NC(c2ccccc2)C(F)(F)F)c(F)c1 (stereo not shown) [Example 52, 5-chloro-7-[N-(1-phenyl-2,2,2-trifluoroethyl)-amino]-6-(2,4,6-trifluorophenyl)-[1,2,4]triazolo[1,5-a]pyrimidine] | 12500 (≈ 27.3 mM) | 3130 (≈ 6.84 mM) | 3130 (≈ 6.84 mM) | 1560 (≈ 3.41 mM) |  |  |  |  |  |  |  |  |  | 
OC1CCCN(c2c(-c3c(F)cc(F)cc3F)c(Cl)nc3ncnn23)C1 (stereo not shown) [Example 41, 5-chloro-7-(3-hydroxypiperidin-1-yl)-6-(2,4,6-trifluorophenyl)-[1,2,4]triazolo[1,5-a]-pyrimidine] | 100000 (≈ 261 mM) | 25000 (≈ 65.1 mM) | 6250 (≈ 16.3 mM) | 12500 (≈ 32.6 mM) | 50000 (≈ 130 mM) |  |  |  |  |  |  |  |  | 
CC(C)CCN(C)c1c(-c2c(F)cc(F)cc2F)c(Cl)nc2ncnn12 [Example 54, 5-chloro-7-[N-(3-methylbutyl)-N-methylamino]-6-(2,4,6-trifluorophenyl)-[1,2,4]triazolo[1,5-a]pyrimidine] | 3130 (≈ 8.16 mM) | 3130 (≈ 8.16 mM) | 780 (≈ 2.03 mM) | 40 (≈ 0.104 mM) | 12500 (≈ 32.6 mM) |  |  |  |  |  |  |  |  | 
CC1CCN(c2c(-c3c(F)cccc3Cl)c(Cl)nc3ncnn23)CC1 [standard^1, 5-chloro-7-(4-methylpiperidin-1-yl)-6-(2-chloro-6-fluorophenyl)-[1,2,4]triazolo[1,5-a]pyrimidine, reference compound] |  |  |  |  |  | 31 | 42 | 44 | 73 |  |  |  |  | 
CCCC(Cn1cncn1)c1ccc(Cl)cc1Cl (stereo not shown) [Penconazole, reference compound] |  |  |  |  |  | 11 | 17 | 31 | 58 |  |  |  |  | 
CC(C)CN(CC(F)(F)F)c1c(-c2c(F)cc(F)cc2F)c(Cl)nc2ncnn12 [Example 26, 5-chloro-7-(N-2-methylpropyl-N-2,2,2-trifluoroethylamino)-6-(2,4,6-trifluorophenyl)-[1,2,4]triazolo[1,5-a]pyrimidine] | 200 (≈ 0.457 mM) |  | 200 (≈ 0.457 mM) | 40 (≈ 0.0914 mM) | 390 (≈ 0.891 mM) | 0 | 14 | 22 | 27 |  |  |  |  | MIC (Rhizoctonia solani; [2]): 3130 µg/mL (≈ 7.15 mM)
C[Si](C)(C)CN(CC(F)(F)F)c1c(-c2c(F)cc(F)cc2F)c(Cl)nc2ncnn12 [Example 40, 5-chloro-7-[N-(2.2,2-trifluoroethyl)-N-(trimethylsiiylmethyl)-amino]-6-(2.4,6-trifiuorophenyl)-[1,2,4]triazolo[1,5-a]pyrimidine] |  |  |  |  |  |  |  |  |  | 6250 (≈ 13.4 mM) | 780 (≈ 1.67 mM) | 25000 (≈ 53.4 mM) | 1560 (≈ 3.33 mM) | MIC (Minimum Inhibitory Concentration) RHISZO (Rhizoctonia solani): 110000 µg/mL (≈ 235 mM); MIC (Minimum Inhibitory Concentration) LEPTNO (Leptosphaeria nodorum): 110000 µg/mL (≈ 235 mM); MIC (Minimum Inhibitory Concentration) PYRNTE (Pyrenophora teres): 25000 µg/mL (≈ 53.4 mM)
Fc1cc(F)c(-c2c(Cl)nc3ncnn3c2NC2CC3CCC2C3)c(F)c1 (stereo not shown) [Example 11, 5-chloro-7-(N-norborn-2-ylamino)-6-(2,4,6-trifluorophenyl)-[1,2,4]triazolo[1,5-a]pyrimidine] |  |  |  |  |  | 64 | 93 | 100 | 100 |  |  |  |  | 
CN(CC(F)(F)F)c1c(-c2c(F)cc(F)cc2F)c(Cl)nc2ncnn12 [Example 27, 5-chloro-7-(N-methyl-N-2,2.2-trifluoroethylamino)-6-(2,4,6-trifluorophenyl)-[1,2,4]triazolo[1,5-a]-pyrimidine] |  |  |  |  |  |  |  |  |  | 3130 (≈ 7.91 mM) | 780 (≈ 1.97 mM) | 110000 (≈ 278 mM) | 100 (≈ 0.253 mM) | MIC (Minimum Inhibitory Concentration) RHISZO (Rhizoctonia solani; [2]): 1560 µg/mL (≈ 3.94 mM); MIC (Minimum Inhibitory Concentration) LEPTNO (Leptosphaeria nodorum; [2]): 50000 µg/mL (≈ 126 mM); MIC (Minimum Inhibitory Concentration) PYRNTE (Pyrenophora teres; [2]): 12500 µg/mL (≈ 31.6 mM); % activity (ABBOTT formula) (Uncinula necator; Concentration 3.13 ppm): 0%; % activity (ABBOTT formula) (Uncinula necator; Concentration 6.25 ppm): 0%; % activity (ABBOTT formula) (Uncinula necator; Concentration 12.50 ppm): 11%; % activity (ABBOTT formula) (Uncinula necator; Concentration 25.00 ppm): 17%
CC1CCN(c2c(-c3c(F)cc(F)cc3F)c(Cl)nc3ncnn23)CC1 [Example 2, 5-chloro-7-(4-methylpiperidin-1-yl)-6-(2,4,6-trifluorophenyl)-[1,2,4]triazolo[1,5-a]pyrimidine] | 100 (≈ 0.262 mM) | 200 (≈ 0.524 mM) | 40 (≈ 0.105 mM) | 40 (≈ 0.105 mM) | 6250 (≈ 16.4 mM) | 100 | 100 | 100 | 100 |  |  |  |  | MIC (Phytophthora infestans): 100000 µg/mL (≈ 262 mM)
CCCC(Nc1c(-c2c(F)cc(F)cc2F)c(Cl)nc2ncnn12)C(C)C (stereo not shown) [Example 57, 5-chloro-7-[3-(2-methylhexyl)-amino]-6-(2,4,6-trifluorophenyl)-[1,2,4]triazolo[5-a]-pyrimidine] |  |  |  |  |  |  |  |  |  | 390 (≈ 0.98 mM) | 200 (≈ 0.503 mM) | 110000 (≈ 276 mM) | 40 (≈ 0.101 mM) | MIC (Minimum Inhibitory Concentration) RHISZO (Rhizoctonia solani; [2]): 110000 µg/mL (≈ 276 mM); MIC (Minimum Inhibitory Concentration) LEPTNO (Leptosphaeria nodorum; [2]): 780 µg/mL (≈ 1.96 mM); MIC (Minimum Inhibitory Concentration) PYRNTE (Pyrenophora teres; [2]): 3130 µg/mL (≈ 7.87 mM)
CC(Nc1c(-c2c(F)cc(F)cc2F)c(Cl)nc2ncnn12)C(F)(F)F (stereo not shown) [Example 28, 5-chloro-7-[N-2-(1,1,1-trifluoropropyl)-amino]-6-(2,4,6-trifluorophenyl)-[1,2,4]triazolo[1,5-a]pyrimidine] |  |  |  |  |  |  |  |  |  | 3130 (≈ 7.91 mM) | 780 (≈ 1.97 mM) | 110000 (≈ 278 mM) | 780 (≈ 1.97 mM) | MIC (Minimum Inhibitory Concentration) RHISZO (Rhizoctonia solani; [2]): 3130 µg/mL (≈ 7.91 mM); MIC (Minimum Inhibitory Concentration) LEPTNO (Leptosphaeria nodorum; [2]): 3130 µg/mL (≈ 7.91 mM); MIC (Minimum Inhibitory Concentration) PYRNTE (Pyrenophora teres; [2]): 6250 µg/mL (≈ 15.8 mM); % activity (ABBOTT formula) (Uncinula necator; Concentration 3.13 ppm): 97%; % activity (ABBOTT formula) (Uncinula necator; Concentration 6.25 ppm): 100%; % activity (ABBOTT formula) (Uncinula necator; Concentration 12.50 ppm): 100%; % activity (ABBOTT formula) (Uncinula necator; Concentration 25.00 ppm): 100%
OC(c1ccc(Cl)cc1)(c1cncnc1)c1ccccc1Cl (stereo not shown) [Fenarimol, reference compound] |  |  |  |  |  | 31 | 75 | 95 | 99 |  |  |  |  | 
CC(C)C(Nc1c(-c2c(F)cc(F)cc2F)c(Cl)nc2ncnn12)C(F)(F)F (stereo not shown) [Example 55, 5-chloro-7-[N-2-(3-methyl-1,1,1-trifluorobutyl)-amino]-6-(2,4,6-trifluorophenyl)-[1,2,4]triazolo[1,5-a]-pyrimidine] |  |  |  |  |  |  |  |  |  | 1560 (≈ 3.68 mM) | 390 (≈ 0.92 mM) | 100000 (≈ 236 mM) | 40 (≈ 0.0944 mM) | MIC (Minimum Inhibitory Concentration) RHISZO (Rhizoctonia solani; [2]): 12500 µg/mL (≈ 29.5 mM); MIC (Minimum Inhibitory Concentration) LEPTNO (Leptosphaeria nodorum; [2]): 1560 µg/mL (≈ 3.68 mM); MIC (Minimum Inhibitory Concentration) PYRNTE (Pyrenophora teres; [2]): 6250 µg/mL (≈ 14.7 mM)
Fc1cc(F)c(-c2c(Cl)nc3ncnn3c2NCC(F)(F)F)c(F)c1 [Example 12, 5-chloro-7-(N-2,2,2-trifluoroethylamino)-6-(2,4,6-trifluorophenyl)-[1,2,4]triazolo[1,5-a]pyrimidine] | 1560 (≈ 4.09 mM) | 6250 (≈ 16.4 mM) | 1560 (≈ 4.09 mM) | 200 (≈ 0.524 mM) | 6250 (≈ 16.4 mM) | 97 | 100 | 100 | 100 |  |  |  |  | MIC (Rhizoctonia solani; [2]): 6250 µg/mL (≈ 16.4 mM); MIC (Phytophthora infestans): 25000 µg/mL (≈ 65.5 mM)

From patent EP0975634B1, “FUNGICIDAL TRIFLUOROPHENYL-TRIAZOLOPYRIMIDINES” (BASF AKTIENGESELLSCHAFT, priority 1997, dated 1998)
